Measurements from US9499811B2, “Ligation enhancement” (New England Biolabs, Inc., priority 2011, dated 2016).

Target: T1, T4 DNA ligase (Enterobacteria phage T4, UniProt P00970)
T1 sequence (P00970 1-487): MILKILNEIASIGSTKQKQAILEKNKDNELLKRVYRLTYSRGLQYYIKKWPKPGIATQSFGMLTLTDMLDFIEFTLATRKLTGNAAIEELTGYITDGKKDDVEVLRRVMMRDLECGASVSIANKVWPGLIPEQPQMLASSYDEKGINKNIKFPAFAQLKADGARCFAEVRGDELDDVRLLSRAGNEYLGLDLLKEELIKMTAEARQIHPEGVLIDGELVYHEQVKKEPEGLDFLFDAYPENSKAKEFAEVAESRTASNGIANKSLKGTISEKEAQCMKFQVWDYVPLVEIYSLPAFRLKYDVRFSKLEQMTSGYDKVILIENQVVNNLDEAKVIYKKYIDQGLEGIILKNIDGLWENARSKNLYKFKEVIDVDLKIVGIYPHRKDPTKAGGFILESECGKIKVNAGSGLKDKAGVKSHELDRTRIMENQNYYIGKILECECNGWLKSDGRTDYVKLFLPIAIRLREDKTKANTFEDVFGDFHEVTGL
Test: Ligation of one, two or three pUC19 fragments with single-base overhangs, transformation and gel analysis
Assay type: biochemical
Set-up: purchased NEB (New England Biolabs), Ipswich, Mass. #M0202
Conditions: for Ligation/Subsequent Transformation Enhancement: 12% 1,2-PrD vs none; for Transformation Efficiency +1,2-PrD / Resultant Colonies +1,2-PrD: 12% 1,2-PrD; for Resultant Colonies +1,2-PrD: 20 pg DNA plated
Procedure: FIGS. 4A-C show agarose gel electrophoresis analysis of ligation products achieved using +/−12% 1,2-PrD for one, two and three pUC19 fragment sets as described in FIGS. 3A-C. The marker lane indicated by M corresponds to 1 μg of a 2-log DNA ladder, New England Biolabs, Inc. (NEB), Ipswich, Mass., #3200. (1) is a 2686-bp linear AhdI-pUC19 fragment; (2) are 1527-bp and 1159-bp BciVI fragments; (3) are 2 lengths (2275-bp and 287-bp) of 3 BccI fragments where the third 124-bp fragment is not visible on the gel; (4) is a linearized intermediate ligation product formed by 2275-bp and 287-bp BccI fragments; (5) is the desired ligated/circularized plasmid which is a highly transformable desired product; and (6) are different kinds of linear and circular undesired concatameric ligation products which are not highly transformable.
For chemically competent cell transformations, the cell-DNA mixture was incubated on ice for 30 min, heat-shocked at 42° C. for 30 sec, then returned to ice for 5 min. A volume of 950 μl SOC medium (2% vegetable peptone or Tryptone, 0.5% yeast extract, 10 mM NaCl, 2.5 mM KCl, 10 mM MgCl2, 10 mM MgSO4 and 20 mM glucose) was added to the cell-DNA mixture, followed by a one hr 37° C. outgrowth period with agitation. A volume of 25-50 μl of appropriately diluted cells in SOC was spread onto Rich Agar plates (composition per liter: 10 g soy peptone, 5 g yeast extract, 10 g NaCl, 1 g MgCl2-6H2O, 1 g dextrose, 15 grams agar) supplemented with 100 μg/ml ampicillin. Plates were inverted and incubated for 16 hrs at 37° C., followed by quantification of total colony numbers.
Single fragment ligation (recircularization), two fragment ligation (cloning) and three fragment ligation (assembly) reactions were performed in the presence of 1,2-PrD (see FIGS. 3A-C). Restriction digests of pUC19 plasmid constructs were performed to completion by monitoring the reactions using 1% agarose gel electrophoresis. Upon completion all restriction enzymes were heat-inactivated by incubating the reaction for 20 min at 65° C. The DNA was purified by use of QiaQuick® (Qiagen, Valencia, Calif.) spin columns and quantified by comparison to known DNA standards by 1% agarose gel electrophoresis. […] Ligation reactions were performed as described in FIGS. 3A-C using 100 ng of DNA that had been restricted by AhdI, BciVI or BccI to leave a variety of single-base overhangs. From each 21 μl ligation reaction, 2 μl was used for transformation as analyzed in Table 4 and 19 μl was run on a 1% agarose gel prepared with tris-borate as described in FIGS. 4A-C. […] This is the highly transformable DNA circularized form.
The ligations took place with and without 12% 1,2-PrD present for 10 min at room temperature (25° C.) with 2000 units T4 DNA ligase. A volume of 2 μl from each ligation reaction was transformed into chemically competent DH5 alpha cells as described in Example 1. A volume of 40 μl of a 1:20 dilution of the outgrowth in SOC medium was plated on medium Rich Agar plates supplemented with ampicillin. This volume corresponded to 20 pg of DNA from the original ligation reaction.

[1] = 1 fragment (AhdI-linearized pUC19)

Compound: CC(O)CO (stereo not shown) [1,2-PrD, 1,2-propanediol]
- Ligation/Subsequent Transformation Enhancement [1]: 12-fold
- Ligation/Subsequent Transformation Enhancement (2 fragments (BciVI-pUC19)): At least 35-fold
- Ligation/Subsequent Transformation Enhancement (3 fragments (BccI-pUC19)): 18-fold
- Transformation Efficiency +1,2-PrD [1]: 51.4 × 10e^6/μg DNA
- Resultant Colonies +1,2-PrD (1 fragment (AhdI-linearized pUC19), 2000 units T4 DNA ligase, 10 min 25 C): 1027
- Transformation Efficiency +1,2-PrD (2 fragments (BciVI-pUC19)): 1.8 × 10e^6/μg DNA
- Resultant Colonies +1,2-PrD (2 fragments (BciVI-pUC19)): 35
- Transformation Efficiency +1,2-PrD (3 fragments (BccI-pUC19)): 1.85 × 10e^6/μg DNA
- Resultant Colonies +1,2-PrD (3 fragments (BccI-pUC19)): 37
- Amount of ligated circularized plasmid on agarose gel (+/-12% 1,2-PrD, one, two and three pUC19 fragment sets (FIGS. 4A-C)): significant beneficial effect on the amount of ligated circularized plasmid
